Like-named read-outs stand apart in the source and are kept apart here.
What was measured:
MX1 = test: Inhibition of cell proliferation (GI50), CellTiter 96 AQUEOUS One Solution, MX1 cells; type: cell-based; details: 48 h incubation, dose for 50% inhibition of cell proliferation
Procedure: (§1) T-47D and MX1 cells were grown and harvested as in Example 49. An aliquot of 90 μL of cells (2.2×10^4 cells/mL) was added to a well of a 96-well micrQtiter plate containing 10 μl of a 10% DMSO in RPMI-1640 media solution containing […] to 100 μM of 1,3-dimethyl-N-(4-methoxyphenyl)-1H-pyrazolo[3,4-b]quinolin-4-amine (0.1 nM to 10 μM final) or other test compound. An aliquot of 90 μL of cells was added to a well of a 96-well microtiter plate containing 10 μL of a 10% DMSO in RPMI-1640 media solution without compound as the control sample for maximal cell proliferation (AMax). The samples were mixed by agitation and then incubated at 37° C. for 48 h in a 5% CO2-95% humidity incubator. After incubation, the samples were removed from the incubator and 20 μL of CellTiter 96 AQUEOUS One Solution Cell Proliferation™ reagent (Promega) was added. The samples were mixed by agitation and incubated at 37° C. for 2-4 h in a 5% CO2-95% humidity incubator. Using an absorbance plate reader (Model 1420 Wallac Instruments), an initial reading (T=0) was made about 1-2 min after addition of the solution, employing absorbance at 490 nm. This determines the possible background absorbance of the test compounds. No absorbance for 1,3-dimethyl-N-(4-methoxyphenyl)-1H-pyrazolo[3,4-b]quinolin-4-amine was found at 490 nm. After the 2-4 h incubation, the samples were read for absorbance as above (ATest).
(§2) Baseline for GI50 (dose for 50% inhibition of cell proliferation) of initial cell numbers were determined by adding an aliquot of 90 μL of cells or 90 μL of media, respectively, to wells of a 96-well microtiter plate containing 10 μL of a 10% DMSO in RPMI-1640 media solution. The samples were mixed by agitation and then incubated at 37° C. for 0.5 h in a 5% CO2-95% humidity incubator. After incubation, the samples were removed from the incubator and 20 μL of CellTiter 96 AQUEOUS One Solution Cell Proliferation™ reagent (Promega) was added. The samples were mixed by agitation and incubated at 37° C. for 2-4 h in a 5% CO2-95% humidity incubator. Absorbance was read as above, (Astart) defining absorbance for initial cell number used as baseline in GI50 determinations.
(§3) GI50 (dose for 50% inhibition of cell proliferation) is the concentration where [(ATest−Astart)/(AMax−AStart)]=0.5.

T-47D [1] = test: Caspase cascade activation assay (N-(Ac-DEVD)-N'-ethoxycarbonyl-R110 fluorogenic substrate) in T-47D cells; type: cell-based, Human; details: 24 h incubation; for Caspase Activity Ratio: ratio of net RFU (T=3 h) to that of control samples, 0.16 to 10 μM final; for EC50: sigmoidal dose-response calculation, read-out: Caspase Potency EC50
Procedure: Human breast cancer cell lines T-47D was grown according to media component mixtures designated by American Type Culture Collection+10% FCS (mvitrogen Corporation), in a 5% CO2-95% humidity incubator at 37° C. T-47D and ZR-75-1 cells were maintained at a cell density between 30 and 80% confluency and for HL-60 at a cell density of 0.1 to 0.6×10^6 cells/mL. Cells were harvested at 600×g and resuspended at 0.65×10^6 cells/mL into appropriate media+10% FCS. An aliquot of 45 μL of cells was added to a well of a 96-well microtiter plate containing 5 μL of a 10% DMSO in RPMI-1640 media solution containing 1.6 to 100 μM of 1,3-dimethyl-N-(4-methoxyphenyl)-1H-pyrazolo[3,4-b]quinolin-4-amine or other test compound (0.16 to 10 μM final). An aliquot of 45 μL of cells was added to a well of a 96-well microtiter plate containing 5 μL of a 10% DMSO in RPMI-1640 media solution without test compound as the control sample. The samples were mixed by agitation and then incubated at 37° C. for 24 h in a 5% CO2-95% humidity incubator. After incubation, the samples were removed from the incubator and 50 μL of a solution containing 20 μM of N-(Ac-DEVD)-N′-ethoxycarbonyl-R110 fluorogenic substrate (SEQ ID NO:1) (Cytovia, Inc.; U.S. Pat. No. 6,335,429), 20% sucrose (Sigma), 20 mM DTT (Sigma), 200 mM NaCl (Sigma), 40 mM Na PIPES buffer pH 7.2 (Sigma), and 500 μg/mL lysolecithin (Calbiochem) was added. The samples were mixed by agitation and incubated at room temperature. Using a fluorescent plate reader (Model 1420 Wallac Instruments), an initial reading (T=0) was made about 1-2 min after addition of the substrate solution, employing excitation at 485 nm and emission at 530 nm, to determine the background fluorescence of the control sample. After about 3 h of incubation, the samples were read for fluorescence as above (T=3 h).
The Relative Fluorescence Unit values (RFU) were used to calculate the sample readings as follows: RFU(T=3h)−Control RFU(T=0)=Net RFU(T=3h)
The activity of caspase cascade activation was determined by the ratio of the net RFU value for 1,3-dimethyl-N-(4-methoxyphenyl)-1H-pyrazolo[3,4-b]quinolin-4-amine to that of control samples. The EC50 (nM) was determined by a sigmoidal dose-response calculation (Prism 2.0, GraphPad Software Inc.).

T-47D [2] = test: Inhibition of cell proliferation (GI50), CellTiter 96 AQUEOUS One Solution, T-47D cells; type: cell-based, Human; details: 48 h incubation, dose for 50% inhibition of cell proliferation
Procedure: as §1, §2, §3

Row | SMILES | EC50 (T-47D [1]; Homo sapiens, T47D) | GI50 (T-47D [2]; Homo sapiens, T47D) | EC50 (T-47D [1]) | GI50 (T-47D [2]) | GI50 (MX1; Homo sapiens) | Caspase Activity Ratio (T-47D [1]) | GI50 (MX1)
1 | CSc1ccc(Nc2c3ccccc3nc3c2c(C)nn3C)cc1 [Example 33, 1,3-Dimethyl-N-(4-methylthiophenyl)-1H-pyrazolo[3,4-b]quinolin-4-amine] | 667 nM | 500 nM |  |  | 500 nM | 3.6 | 
2 | CCC(=O)c1ccc(Nc2c3cccc(N)c3nc3c2c(C)nn3C)cc1 [Example 38, 8-Amino-1,3-dimethyl-N-(4-propionylphenyl)-1H-pyrazolo[3,4-b]quinolin-4-amine] | 706 nM | 803 nM |  |  | 2210 nM | 5.1 | 
3 | CCC(O)c1ccc(Nc2c3ccccc3nc3c2c(C)nn3C)cc1 (stereo not shown) [Example 43, N-(4-(1-Hydroxypropyl)-phenyl)-1,3-dimethyl-1H-pyrazolo[3,4-b]quinolin-4-amine] | 183 nM | 140 nM |  |  | 1670 nM | 3.7 | 
4 | CCC(=O)c1ccc(Nc2c3ccccc3nc3c2c(C)nn3CC)cc1 [Example 42, 1-Ethyl-3-methyl-N-(4-propionylphenyl)-1H-pyrazolo[3,4-b]quinolin-4-amine] | 173 nM | 100 nM |  |  | 100 nM | 6.7 | 
5 | COc1ccc(N(C)c2c3ccccc3nc3c2c(C)nn3C)cc1 [Example 31, 1,3-Dimethyl-N-methyl-N-(4-methoxyphenyl)-1H-pyrazolo[3,4-b]quinolin-4-amine] | 4100 nM | 6100 nM |  |  | > 10000 nM | 9.7 | 

More lines, main results first:

Row | EC50 (T-47D [1]; Homo sapiens, T47D) | GI50 (T-47D [2]; Homo sapiens, T47D) | EC50 (T-47D [1]) | GI50 (T-47D [2]) | SMILES | GI50 (MX1; Homo sapiens) | Caspase Activity Ratio (T-47D [1]) | GI50 (MX1)
6 | 333 nM | 519 nM |  |  | COC(=O)c1ccc(Nc2c3ccccc3nc3c2c(C)nn3C)cc1 [Example 4, 1,3-Dimethyl-N-(4-(methoxycarbonyl)phenyl)-1H-pyrazolo[3,4-b]quinolin-4-amine] | 500 nM | 8.6 | 
7 | 444 nM | 300 nM |  |  | CC(=O)c1ccc(Nc2c3c(nc4ccccc24)CCC3)cc1 [Example 11, N-(4-Acetylphenyl)-2,3-dihydro-1H-cyclopenta[b]quinolin-9-amine] | 300 nM | 9.4 | 
8 | > 10000 nM | > 10000 nM |  |  | CC(=O)c1ccc(Nc2c3cc(C)ccc3nc3c2c(C)nn3C)cc1 [Example 26, N-(4-Acetylphenyl)-1,3,6-trimethyl-1H-pyrazolo[3,4-b]quinolin-4-amine] | > 10000 nM | 1.1 | 
9 | 2850 nM | 4560 nM |  |  | COC(=O)c1ccc(N(C)c2c3ccccc3nc3c2c(C)nn3C)cc1 [Example 30, 1,3-Dimethyl-N-methyl-N-(4-methoxycarbonylphenyl)-1H-pyrazolo[3,4-b]quinolin-4-amine] | 4000 nM | 6.6 | 
10 | 793 nM | 809 nM |  |  | COc1ccc(Nc2c3ccccc3nc3c2c(C)nn3C)cc1 [Compound A, 1,3-Dimethyl-N-(4-methoxyphenyl)-1H-pyrazolo[3,4-b]quinolin-4-amine] | 800 nM | 3.8 | 
11 | 43 nM | 30 nM |  |  | CCC(=O)c1ccc(Nc2c3ccccc3nc3c2c(C)nn3C)cc1 [Example 23, 1,3-Dimethyl-N-(4-propionylphenyl)-1H-pyrazolo[3,4-b]quinolin-4-amine] | 30 nM | 4.2 | 
12 |  |  | 663 nM | 399 nM | CC(=O)c1ccc(Nc2c3cccc(C)c3nc3c2c(C)nn3C)cc1 [Example 29, N-(4-Acetylphenyl)-1,3,8-trimethyl-1H-pyrazolo[3,4-b]quinolin-4-amme] |  | 4.2 | 600 nM
13 | 435 nM | 546 nM |  |  | CCC(=O)c1ccc(Nc2c3cccc([N+](=O)[O-])c3nc3c2c(C)nn3C)cc1 [Example 37, 1,3-Dimethyl-8-nitro-N-(4-propionylphenyl)-1H-pyrazolo[3,4-b]quinolin-4-amine] | 900 nM | 4.2 | 

— patent publication US20070253957A1, “Substituted N-Aryl-1H-Pyrazolo[3,4-B]Quinolin-4-Amines and Analogs as Activators of Caspases and Inducers of Apoptosis” (Cytovia, Inc., priority 2004, published 2007)
